Earlier results, collected in PMC4854401, “Biochemical Mechanisms for Geographical Adaptations to Novel Toxin Exposures in Butterflyfish” (PLoS ONE, 2016).

Tested on: CYP activity
Parameters: method as in PMID 24272422
Details: black swallowtails (Papilio polyxenes), dose-dependent; cited from earlier work

## COc1c2occc2cc2ccc(=O)oc12 [xanthotoxin]
  induced CYP activity, increase: seven fold
